In patent US6534652B2, “Intermediates for the preparation of substituted 1,2,3,4-tetrahydronaphthalene derivatives” (AstraZeneca AB, priority 1997, dated 2003) one finds melting point data, which are given here for 15 molecules.

Structures are written as SMILES.

Usually melting point stands for the temperature, or range, at which the solid turns liquid. Take `CCCCOc1ccc(C(=O)N[C@@H]2CCc3c(O)ccc(N4CCN(C)CC4)c3C2)cc1` [Example 11, (R)-N-[5-Hydroxy-8-(4-methylpiperazin-1-yl)-1,2,3,4-tetrahydro-2-naphthyl]-4-butoxybenzamide]: the melting point is 125 °C (dec.). The molecule `O=C(N[C@@H]1CCc2c(Br)ccc(N3CCNCC3)c2C1)c1ccc(N2CCOCC2)cc1` [Example 17, (R)-N-[5-Bromo-8-(piperazin-1-yl)-1,2,3,4-tetrahydro-2-naphthyl]-4-morpholinobenzamide] returned a melting point of 228 to 229 °C. Next, `CN1CCN(c2ccc(Br)c3c2C[C@H](NC(=O)c2ccc(N4CCOCC4)cc2)CC3)CC1` [Example 20, (R)-N-[5-Bromo-8-(4-methylpiperazin-1-yl)-1,2,3,4-tetrahydro-2-naphthyl]-4-morpholinobenzamide]: 245 to 246 °C; `COc1ccc(N2CCN(C)CC2)c2c1CC[C@@H](NC(=O)c1ccc(N3CCOCC3)cc1)C2` [Example 25, (R)-N-[5-Methoxy-8-(4-methylpiperazin-1-yl)-1,2,3,4-tetrahydro-2-naphthyl]-4-morpholinobenzamide]: 237 to 238 °C. For `CN1CCN(c2ccc(O)c3c2C[C@H](NC(=O)c2ccc(C#N)cc2)CC3)CC1` [Example 26, (R)-N-[5-Hydroxy-8-(4-methylpiperazin-1-yl)-1,2,3,4-tetrahydro-2-naphthyl]-4-cyanobenzamide], the melting point turned out to be 144 °C. Take `COc1ccc(N2CCN(C)CC2)c2c1CC[C@@H](NC(=O)c1ccc(C(=O)N3CCOCC3)cc1)C2` [Example 27, (R)-N-[5-Methoxy-8-(4-methylpiperazin-1-yl)-1,2,3,4-tetrahydro-2-naphthyl]-4-morpholinocarbonylbenzamide]: the melting point lay within 209 to 210 °C.

Consider `CN1CCN(c2ccc(Br)c3c2C[C@H](NC(=O)c2ccc(C(=O)N4CCOCC4)cc2)CC3)CC1` [Example 28, (R)-N-[5-Bromo-8-(4-methylpiperazin-1-yl)-1,2,3,4-tetrahydro-2-naphthyl]-4-morpholinocarbonylbenzamide], for which the melting point fell in the range of 228 to 230 °C. For the molecule `COc1ccc(C2CCN(C)CC2)c2c1CC[C@@H](NC(=O)c1ccc(N3CCOCC3)cc1)C2` [Example 38, (R)-N-[5-Methoxy-8-(1-methylpiperidin-4-yl)-1,2,3,4-tetrahydro-2-naphthyl]-4-morpholinobenzamide], the melting point is 237 to 242 °C (dec.). With `CCc1ccc(N2CCN(C)CC2)c2c1CC[C@@H](NC(=O)c1ccc(N3CCOCC3)cc1)C2` [Example 42, (R)-N-[5-Ethyl-8-(4-methylpiperazin-1-yl)-1,2,3,4-tetrahydro-2-naphthyl]-4-morpholinobenzamide], the melting point is 234 °C (dec.). `CN1CCN(c2ccc(OC(F)F)c3c2C[C@H](NC(=O)c2ccc(N4CCOCC4)cc2)CC3)CC1` [Example 46, (R)-N-[5-Difluoromethoxy-8-(4-methylpiperazin-1-yl)-1,2,3,4-tetrahydro-2-naphthyl]-4-morpholinobenzamide] gave a melting point of 222 to 223 °C. Consider `CN1CCN(c2ccc(Br)c3c2C[C@H](NC(=O)c2ccc(C(F)(F)F)cc2)CC3)CC1` [Example 48, (R)-N-[5-Bromo-8-(4-methylpiperazin-1-yl)-1,2,3,4-tetrahydro-2-naphthyl]-4-trifluoromethylbenzamide], for which the melting point lay in the range of 229 to 230 °C. Next, `COCc1ccc(N2CCN(C)CC2)c2c1CC[C@@H](NC(=O)c1ccc(N3CCOCC3)cc1)C2` [Example 51, (R)-N-[5-Methoxymethyl-8-(4-methylpiperazin-1-yl)-1,2,3,4-tetrahydro-2-naphthyl]-4-morpholinobenzamide]: 200 °C (dec.); `CN1CCN(c2ccc(O)c3c2C[C@H](NC(=O)c2ccc(N4CCOCC4)cc2)CC3)CC1` [Example 60, (R)-N-[5-Hydroxy-8-(4-methylpiperazin-1-yl)-1,2,3,4-tetrahydro-2-naphthyl]-4-morpholinobenzamide]: 84 to 88 °C. Next, `Cc1ccc(N2CCNCC2)c2c1CC[C@@H](NC(=O)c1ccc(N3CCOCC3)cc1)C2` [Example 67, (R)-N-[5-Methyl-8-(piperazin-1-yl)-1,2,3,4-tetrahydro-2-naphthyl]-4-morpholinobenzamide]: 207 to 210 °C; `Cc1ccc(N2CCN(C)CC2)c2c1CC[C@@H](NC(=O)c1ccc(Cl)cc1)C2` [Example 68, (R)-N-[5-Methyl-8-(4-methylpiperazin-1-yl)-1,2,3,4-tetrahydro-2-naphthyl]-4-chlorobenzamide]: 210 to 212 °C.
